{"source": "patent US20260356814A1", "about": "“INDOLINE DERIVATIVES AS SEROTONERGIC AGENTS USEFUL FOR THE TREATMENT OF DISORDERS RELATED THERETO” (MINDSET PHARMA INC., priority 2022, published 2026)", "key": {"[1]": {"molecular_target": "T1, human 5-HT1A receptor (Homo sapiens, UniProt P08908)", "T1 construct": "expressed in transfected cells; host or cells: CHO (HTR1A&Ga15-CHO)", "T1 sequence (P08908 1-422)": "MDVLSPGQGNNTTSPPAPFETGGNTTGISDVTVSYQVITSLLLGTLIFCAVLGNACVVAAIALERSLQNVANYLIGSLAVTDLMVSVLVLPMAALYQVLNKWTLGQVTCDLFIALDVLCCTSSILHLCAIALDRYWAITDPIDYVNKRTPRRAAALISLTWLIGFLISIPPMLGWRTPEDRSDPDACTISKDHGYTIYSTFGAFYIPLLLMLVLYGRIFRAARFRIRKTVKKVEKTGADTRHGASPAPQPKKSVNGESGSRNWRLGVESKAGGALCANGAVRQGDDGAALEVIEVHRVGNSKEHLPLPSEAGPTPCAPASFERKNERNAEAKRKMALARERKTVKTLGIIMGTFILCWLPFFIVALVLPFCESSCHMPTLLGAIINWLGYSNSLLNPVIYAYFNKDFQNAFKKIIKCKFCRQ", "assay": "Human 5-HT1A: Radioligand binding assay ([3H]-8-Hydroxy-DPAT)", "details": "[3H]-8-Hydroxy-DPAT displacement, 27° C., 90 min, pH 7.4; read-out: h5-HT1A, IC50", "experimental": "The objective of this study was to evaluate the binding properties of test compounds on 5-hydroxytryptamine receptor 1A (5-HT1A).\n• 1. The assay buffer was prepared following the table below.\n• 2. 8 doses of reference and test compounds were prepared starting from 10 mM stock solution as required by 5-fold serial dilutions with 100% (v/v) DMSO. • 3. UniFilter-96 GF/B plate was pretreated: • i. 50 μl/well of 0.5% (v/v) PEI was added to UniFilter-96 GF/B plates. The plates were sealed and incubated at 4° C. for 3 hrs. • ii. After incubation, the plates were washed 3 times with ice-cold wash buffer (50 mM Tris, pH7.4). • 4. Assay plate was prepared: • i. Cell membrane was diluted with assay buffer and 100 μl/well was added to 96 round well plates to reach a concentration of 20 μg/well. • ii. 8 concentrations of reference or test compounds were prepared and 50 μl/well was added to 96 round deep well plates. • iii. [3H]-8-Hydroxy-DPAT was diluted with assay buffer to 2 nM (4X final concentration) and 50 μl/well was added to 96 round well plates. • 5. The plate was centrifuged at 1000 rpm for 30 secs and then agitated at 600 rpm, R.T. for 5 min. • 6. The plates were sealed and the plate was incubated at 27° C. for 90 min. • 7. The incubation was stopped by vacuum filtration onto GF/B filter plates followed by 4 times washing with ice-cold wash buffer (50 mM Tris, pH7.4). • 8. The plates were dried at 37° C. for 45 min. • 9. The filter plates were sealed and 40 μl/well of scintillation cocktail was added. • 10. The plate was read by using a Microbeta2 microplate counter.\n• 1. For reference and test compounds, the results were expressed as % Inhibition, using the normalization equation: N=100−100×(U−C2)/(C1−C2), where U is the unknown value, C1 is the average of high controls, and C2 is the average of low controls. • 2. The IC50 was determined by fitting percentage of inhibition as a […] of compound concentrations with Hill equation using XLfit."}, "[2]": {"assay": "Plasma stability, mouse", "format": "in vitro ADME", "details": "37° C.; for remaining at 0.5 h: 30 min, read-out: Remaining Percentage (%), 30 min; for remaining at 1 h: 60 min, read-out: Remaining Percentage (%), 60 min; for half-life: >255.85 if remaining at 60 min greater than 85%", "experimental": "(§1) • a. […] The final concentration of organic solvents was 0.5%. The assay was performed in duplicated. • b.\n(§2) All calculations were carried out using Microsoft Excel."}, "[3]": {"assay": "Plasma stability, rat", "format": "in vitro ADME", "details": "37° C.; for remaining at 0.5 h: 30 min, read-out: Remaining Percentage (%), 30 min; for remaining at 1 h: 60 min, read-out: Remaining Percentage (%), 60 min; for half-life: >255.85 if remaining at 60 min greater than 85%", "experimental": "as §1, §2"}, "[4]": {"assay": "Plasma stability, human", "format": "in vitro ADME", "details": "37° C.; for remaining at 0.5 h: 30 min, read-out: Remaining Percentage (%), 30 min; for remaining at 1 h: 60 min, read-out: Remaining Percentage (%), 60 min; for half-life: >255.85 if remaining at 60 min greater than 85%", "experimental": "as §1, §2"}}}
{"smiles": "COc1cc2c(cc1OC)N(C[C@H]1CCCN1C)CC2", "note": "[(R)-I-34, (R)-5,6-dimethoxy-1-((1-methylpyrrolidin-2-yl)methyl) indoline]", "values": [{"measurement": "IC50", "setting": "[1]", "result": 7750, "unit": "nM"}]}
{"smiles": "[2H]C([2H])([2H])Oc1ccc2c(c1)N(C([2H])([2H])[C@H]1CCCN1C([2H])([2H])[2H])CC2", "note": "[(R)-I-28, (R)-6-(Methoxy-d3)-1-((1-(methyl-d3)pyrrolidin-2-yl)methyl-d2) indoline]", "values": [{"measurement": "Remaining Percentage (%), 0 min", "setting": "[2]", "result": 100.00, "unit": "%"}, {"measurement": "remaining at 0.5 h", "setting": "[2]", "result": 99.2, "unit": "%"}, {"measurement": "remaining at 1 h", "setting": "[2]", "result": 93.3, "unit": "%"}, {"measurement": "half-life", "setting": "[2]", "result": "> 4.26", "unit": "h"}, {"measurement": "Remaining Percentage (%), 0 min", "setting": "[3]", "result": 100.00, "unit": "%"}, {"measurement": "remaining at 0.5 h", "setting": "[3]", "result": 97.9, "unit": "%"}, {"measurement": "remaining at 1 h", "setting": "[3]", "result": 94.7, "unit": "%"}, {"measurement": "half-life", "setting": "[3]", "result": "> 4.26", "unit": "h"}, {"measurement": "Remaining Percentage (%), 0 min", "setting": "[4]", "result": 100.00, "unit": "%"}, {"measurement": "remaining at 0.5 h", "setting": "[4]", "result": 95.1, "unit": "%"}, {"measurement": "remaining at 1 h", "setting": "[4]", "result": 94.2, "unit": "%"}, {"measurement": "half-life", "setting": "[4]", "result": "> 4.26", "unit": "h"}, {"measurement": "IC50", "setting": "[1]", "result": 5.04, "unit": "nM"}]}
{"smiles": "[2H]C([2H])([2H])N(CCN1CCc2ccc(OC)cc21)C([2H])([2H])[2H]", "note": "[Compound I-70, 2-(6-Methoxyindolin-1-yl)-N, N-bis(methyl-d3) ethan-1-amine]", "values": [{"measurement": "IC50", "setting": "[1]", "result": 193, "unit": "nM"}]}
{"smiles": "COc1ccc2c(c1)N(C[C@H]1CCCN1)CC2", "note": "[(R)-I-59, (R)-6-Methoxy-1-(pyrrolidin-2-ylmethyl) indoline]", "values": [{"measurement": "IC50", "setting": "[1]", "result": 85, "unit": "nM"}]}
{"smiles": "[2H]C([2H])([2H])N1CCC[C@@H]1C([2H])([2H])N1CCc2ccccc21", "note": "[(R)-I-1, (R)-1-((1-(Methyl-d3)pyrrolidin-2-yl)methyl-d2) indoline]", "values": [{"measurement": "IC50", "setting": "[1]", "result": 444, "unit": "nM"}]}
{"smiles": "COc1cccc2c1N(C[C@H]1CCCN1C)CC2", "note": "[(R)-I-46, (R)-7-Methoxy-1-((1-methylpyrrolidin-2-yl)methyl) indoline]", "values": [{"measurement": "Remaining Percentage (%), 0 min", "setting": "[2]", "result": 100.00, "unit": "%"}, {"measurement": "remaining at 0.5 h", "setting": "[2]", "result": 103, "unit": "%"}, {"measurement": "remaining at 1 h", "setting": "[2]", "result": 92.4, "unit": "%"}, {"measurement": "half-life", "setting": "[2]", "result": "> 4.26", "unit": "h"}, {"measurement": "Remaining Percentage (%), 0 min", "setting": "[3]", "result": 100.00, "unit": "%"}, {"measurement": "remaining at 0.5 h", "setting": "[3]", "result": 91.3, "unit": "%"}, {"measurement": "remaining at 1 h", "setting": "[3]", "result": 86.7, "unit": "%"}, {"measurement": "half-life", "setting": "[3]", "result": "> 4.26", "unit": "h"}, {"measurement": "Remaining Percentage (%), 0 min", "setting": "[4]", "result": 100.00, "unit": "%"}, {"measurement": "remaining at 0.5 h", "setting": "[4]", "result": 104, "unit": "%"}, {"measurement": "remaining at 1 h", "setting": "[4]", "result": 93, "unit": "%"}, {"measurement": "half-life", "setting": "[4]", "result": "> 4.26", "unit": "h"}, {"measurement": "IC50", "setting": "[1]", "result": 211, "unit": "nM"}]}
{"smiles": "COc1ccc2c(c1)N(C[C@H]1CCCN1C)CC2", "note": "[(R)-I-58, (R)-6-Methoxy-1-((1-methylpyrrolidin-2-yl)methyl) indoline]", "values": [{"measurement": "Remaining Percentage (%), 0 min", "setting": "[2]", "result": 100.00, "unit": "%"}, {"measurement": "remaining at 0.5 h", "setting": "[2]", "result": 97.4, "unit": "%"}, {"measurement": "remaining at 1 h", "setting": "[2]", "result": 105, "unit": "%"}, {"measurement": "half-life", "setting": "[2]", "result": "> 4.26", "unit": "h"}, {"measurement": "Remaining Percentage (%), 0 min", "setting": "[3]", "result": 100.00, "unit": "%"}, {"measurement": "remaining at 0.5 h", "setting": "[3]", "result": 111, "unit": "%"}, {"measurement": "remaining at 1 h", "setting": "[3]", "result": 110, "unit": "%"}, {"measurement": "half-life", "setting": "[3]", "result": "> 4.26", "unit": "h"}, {"measurement": "Remaining Percentage (%), 0 min", "setting": "[4]", "result": 100.00, "unit": "%"}, {"measurement": "remaining at 0.5 h", "setting": "[4]", "result": 108, "unit": "%"}, {"measurement": "remaining at 1 h", "setting": "[4]", "result": 98.5, "unit": "%"}, {"measurement": "half-life", "setting": "[4]", "result": "> 4.26", "unit": "h"}, {"measurement": "IC50", "setting": "[1]", "result": 13, "unit": "nM"}]}
{"smiles": "COc1cccc2c1CCN2C[C@H]1CCCN1C", "note": "[(R)-I-47, (R)-4-Methoxy-1-((1-methylpyrrolidin-2-yl)methyl) indoline]", "values": [{"measurement": "IC50", "setting": "[1]", "result": 15300, "unit": "nM"}]}
{"smiles": "[2H]C([2H])([2H])N1CCC[C@@H]1C([2H])([2H])N1CCc2ccc(OC)cc21", "note": "[(R)-I-57, (R)-6-Methoxy-1-((1-(methyl-d3)pyrrolidin-2-yl)methyl-d2) indoline]", "values": [{"measurement": "Remaining Percentage (%), 0 min", "setting": "[2]", "result": 100.00, "unit": "%"}, {"measurement": "remaining at 0.5 h", "setting": "[2]", "result": 105, "unit": "%"}, {"measurement": "remaining at 1 h", "setting": "[2]", "result": 100, "unit": "%"}, {"measurement": "half-life", "setting": "[2]", "result": "> 4.26", "unit": "h"}, {"measurement": "Remaining Percentage (%), 0 min", "setting": "[3]", "result": 100.00, "unit": "%"}, {"measurement": "remaining at 0.5 h", "setting": "[3]", "result": 92.5, "unit": "%"}, {"measurement": "remaining at 1 h", "setting": "[3]", "result": 89.7, "unit": "%"}, {"measurement": "half-life", "setting": "[3]", "result": "> 4.26", "unit": "h"}, {"measurement": "Remaining Percentage (%), 0 min", "setting": "[4]", "result": 100.00, "unit": "%"}, {"measurement": "remaining at 0.5 h", "setting": "[4]", "result": 108, "unit": "%"}, {"measurement": "remaining at 1 h", "setting": "[4]", "result": 113, "unit": "%"}, {"measurement": "half-life", "setting": "[4]", "result": "> 4.26", "unit": "h"}, {"measurement": "IC50", "setting": "[1]", "result": 10, "unit": "nM"}]}
{"smiles": "[2H]C([2H])([2H])N(CCN1CCc2ccccc21)C([2H])([2H])[2H]", "note": "[Compound I-71, 2-(Indolin-1-yl)-N,N-bis(methyl-d3) ethan-1-amine]", "values": [{"measurement": "IC50", "setting": "[1]", "result": 1620, "unit": "nM"}]}
